In PubChem BioAssay AID2060889 (Molecular Pharmacology Branch, DTP, NCI, 2025):
Values joined by “and” are separate entries in the source; they are usually repeats but may differ in a detail not shown here. Equal values may be shown once.

System: LG0567-F671-PDC complex spheroids viability
Test: Anticancer human tumor LG0567-F671-PDC patient-derived lung adenocarcinoma cell line growth inhibition [RAS]
Details: for viability, T/C: stronger effect = lower value
Outline: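 Multi-cell-type spheroids: tumor cells plus HUVEC endothelial cells and mesenchymal stem cells. RAS-pathway inhibitors were combined with targeted agents, each dosed in half-log steps down from clinical Cmax, or from 10 microM when Cmax was unknown.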

[1] = curve of first compound, second compound 0.000949 µM
[2] = curve of first compound, second compound 0.003 µM
[3] = curve of first compound, second compound 0.00949 µM
[4] = curve of first compound, second compound 0.03 µM
[5] = curve of first compound, second compound 0.0949 µM
[6] = curve of first compound, second compound 0.3 µM
[7] = second compound 0.000949 µM, first compound 0.0316 µM
[8] = second compound 0.000949 µM, first compound 0.1 µM
[9] = second compound 0.000949 µM, first compound 0.316 µM
[10] = second compound 0.000949 µM, first compound 1 µM
[11] = second compound 0.000949 µM, first compound 3.16 µM
[12] = second compound 0.000949 µM, first compound 10 µM
[13] = second compound 0.003 µM, first compound 0.0316 µM
[14] = second compound 0.003 µM, first compound 0.1 µM
[15] = second compound 0.003 µM, first compound 0.316 µM
[16] = second compound 0.003 µM, first compound 1 µM
[17] = second compound 0.003 µM, first compound 3.16 µM
[18] = second compound 0.003 µM, first compound 10 µM
[19] = second compound 0.00949 µM, first compound 0.0316 µM
[20] = second compound 0.00949 µM, first compound 0.1 µM
[21] = second compound 0.00949 µM, first compound 0.316 µM
[22] = second compound 0.00949 µM, first compound 1 µM
[23] = second compound 0.00949 µM, first compound 3.16 µM
[24] = second compound 0.00949 µM, first compound 10 µM
[25] = second compound 0.03 µM, first compound 0.0316 µM
[26] = second compound 0.03 µM, first compound 0.1 µM
[27] = second compound 0.03 µM, first compound 0.316 µM
[28] = second compound 0.03 µM, first compound 1 µM
[29] = second compound 0.03 µM, first compound 3.16 µM
[30] = second compound 0.03 µM, first compound 10 µM
[31] = second compound 0.0949 µM, first compound 0.0316 µM
[32] = second compound 0.0949 µM, first compound 0.1 µM
[33] = second compound 0.0949 µM, first compound 0.316 µM
[34] = second compound 0.0949 µM, first compound 1 µM
[35] = second compound 0.0949 µM, first compound 3.16 µM
[36] = second compound 0.0949 µM, first compound 10 µM
[37] = second compound 0.3 µM, first compound 0.0316 µM
[38] = second compound 0.3 µM, first compound 0.1 µM
[39] = second compound 0.3 µM, first compound 0.316 µM
[40] = second compound 0.3 µM, first compound 1 µM
[41] = second compound 0.3 µM, first compound 3.16 µM
[42] = second compound 0.3 µM, first compound 10 µM
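Further: spheroids exposed to compound for seven days before readout.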
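Wherever IC50 is given: luminescence signal used as a proxy for viable cells.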

NC1c2ccccc2OC12CCN(c1cnc3c(N4CCCc5ncccc54)n[nH]c3n1)CC2 (stereo not given) + C=CC(=O)N1CCN(c2nc(OCC3CCCN3C)nc3c(F)c(-c4nc(N)cc(C)c4C(F)(F)F)c(Cl)cc23)C(C)C1 showed an IC50 (curve of first compound, second compound 0.00316 µM) of less than 31.6 nM, an IC50 (curve of first compound, second compound 0.01 µM) of less than 31.6 nM and an IC50 (curve of first compound, second compound 0.0316 µM) of less than 31.6 nM. For the same compound, the IC50 (curve of first compound, second compound 0.1 µM) was less than 31.6 nM, the IC50 (curve of first compound, second compound 0.316 µM) was less than 31.6 nM and the IC50 (curve of first compound, second compound 1 µM) was less than 31.6 nM. The viability, T/C (second compound 0.00316 µM, first compound 0.0316 µM) was 6.27%, the viability, T/C (second compound 0.00316 µM, first compound 0.1 µM) was 4.36% and the viability, T/C (second compound 0.00316 µM, first compound 0.316 µM) was 3.09%. The viability, T/C (second compound 0.00316 µM, first compound 1 µM) was 2.99%, the viability, T/C (second compound 0.00316 µM, first compound 3.16 µM) was 2.79% and the viability, T/C (second compound 0.00316 µM, first compound 10 µM) was 3.28%. The viability, T/C (second compound 0.01 µM, first compound 0.0316 µM) was 5.37%, the viability, T/C (second compound 0.01 µM, first compound 0.1 µM) was 3.73% and the viability, T/C (second compound 0.01 µM, first compound 0.316 µM) was 2.99%. It also gave a viability, T/C (second compound 0.01 µM, first compound 1 µM) of 2.89%, a viability, T/C (second compound 0.01 µM, first compound 3.16 µM) of 2.44% and a viability, T/C (second compound 0.01 µM, first compound 10 µM) of 2.64%. The viability, T/C (second compound 0.0316 µM, first compound 0.0316 µM) was 4.86%, the viability, T/C (second compound 0.0316 µM, first compound 0.1 µM) was 3.54% and the viability, T/C (second compound 0.0316 µM, first compound 0.316 µM) was 3.04%. It also gave a viability, T/C (second compound 0.0316 µM, first compound 1 µM) of 3.15%, a viability, T/C (second compound 0.0316 µM, first compound 3.16 µM) of 2.61% and a viability, T/C (second compound 0.0316 µM, first compound 10 µM) of 3.04%. For the same compound, the viability, T/C (second compound 0.1 µM, first compound 0.0316 µM) was 5.91%, the viability, T/C (second compound 0.1 µM, first compound 0.1 µM) was 4.17% and the viability, T/C (second compound 0.1 µM, first compound 0.316 µM) was 2.81%. The viability, T/C (second compound 0.1 µM, first compound 1 µM) was 2.78%, the viability, T/C (second compound 0.1 µM, first compound 3.16 µM) was 3% and the viability, T/C (second compound 0.1 µM, first compound 10 µM) was 2.64%. The viability, T/C (second compound 0.316 µM, first compound 0.0316 µM) was 5.55%, the viability, T/C (second compound 0.316 µM, first compound 0.1 µM) was 3.15% and the viability, T/C (second compound 0.316 µM, first compound 0.316 µM) was 3.61%. It also gave a viability, T/C (second compound 0.316 µM, first compound 1 µM) of 3.03%, a viability, T/C (second compound 0.316 µM, first compound 3.16 µM) of 2.75% and a viability, T/C (second compound 0.316 µM, first compound 10 µM) of 2.78%. It also gave a viability, T/C (second compound 1 µM, first compound 0.0316 µM) of 5.5%, a viability, T/C (second compound 1 µM, first compound 0.1 µM) of 4.65% and a viability, T/C (second compound 1 µM, first compound 0.316 µM) of 3.58%. The viability, T/C (second compound 1 µM, first compound 1 µM) was 3.3%, the viability, T/C (second compound 1 µM, first compound 3.16 µM) was 3.79% and the viability, T/C (second compound 1 µM, first compound 10 µM) was 3.5%.

CCC(CC)c1cc(NC2CCC(N)C2)n2nccc2n1 (stereo not given) + CCn1c(-c2cccnc2C(C)OC)c2c3cc(ccc31)N1CCOC(CC(NC(=O)C(C(C)C)N(C)C(=O)C3(F)CCN(C(=O)C#CC(C)(C)N(C)C)CC3)C(=O)N3CCCC(N3)C(=O)OCC(C)(C)C2)C1 gave an IC50 [1] of less than 31.6 nM, an IC50 [2] of less than 31.6 nM and an IC50 [3] of less than 31.6 nM. The IC50 [4] was less than 31.6 nM, the IC50 [5] was less than 31.6 nM and the IC50 [6] was less than 31.6 nM. It also gave a viability, T/C [7] of 21.2%, a viability, T/C [8] of 16.6% and a viability, T/C [9] of 13.3%. For the same compound, the viability, T/C [10] was 13.9%, the viability, T/C [11] was 4.31% and the viability, T/C [12] was 0.82%. It also gave a viability, T/C [13] of 14.1%, a viability, T/C [14] of 16.1% and a viability, T/C [15] of 14.6%. For the same compound, the viability, T/C [16] was 13.5%, the viability, T/C [17] was 4.44% and the viability, T/C [18] was 0.75%. It also gave a viability, T/C [19] of 13.7%, a viability, T/C [20] of 15% and a viability, T/C [21] of 13.3%. It also gave a viability, T/C [22] of 14.2%, a viability, T/C [23] of 3.48% and a viability, T/C [24] of 0.89%. The viability, T/C [25] was 13.2%, the viability, T/C [26] was 13.2% and the viability, T/C [27] was 11.8%. For the same compound, the viability, T/C [28] was 12.3%, the viability, T/C [29] was 3.67% and the viability, T/C [30] was 0.88%. It also gave a viability, T/C [31] of 10.6%, a viability, T/C [32] of 12.2% and a viability, T/C [33] of 10.4%. It also gave a viability, T/C [34] of 12%, a viability, T/C [35] of 4.19% and a viability, T/C [36] of 1%. It also gave a viability, T/C [37] of 8.88%, a viability, T/C [38] of 7.92% and a viability, T/C [39] of 8.86%. It also gave a viability, T/C [40] of 9.25%, a viability, T/C [41] of 3.79% and a viability, T/C [42] of 0.7%.

CC(Nc1ccc2c(c1)OCCn1cc(N3C(=O)OCC3C(F)F)nc1-2)C(N)=O (stereo not given) was tested, and the viability, T/C (compound 0.0316 µM) was 79.5% [middle of 4 runs], the viability, T/C (compound 0.1 µM) was 63.3% [middle of 4 runs] and the viability, T/C (compound 0.316 µM) was 52.5% [middle of 4 runs]. For the same compound, the viability, T/C (compound 1 µM) was 43.4% [middle of 4 runs], the viability, T/C (compound 3.16 µM) was 33.8% (2×) and 32.1% and 37.8% and the viability, T/C (compound 10 µM) was 30.5% [middle of 4 runs]. For the same compound, the IC50 (curve of compound) was 386 nM [middle of 4 runs].

For C[C@@H](NC(=O)c1ncnc(N)c1Cl)c1ncc(C(=O)Nc2cc(C(F)(F)F)c(Cl)cn2)s1 + CCn1c(-c2cccnc2C(C)OC)c2c3cc(ccc31)N1CCOC(CC(NC(=O)C(C(C)C)N(C)C(=O)C3(F)CCN(C(=O)C#CC(C)(C)N(C)C)CC3)C(=O)N3CCCC(N3)C(=O)OCC(C)(C)C2)C1, the IC50 [1] was less than 31.6 nM, the IC50 [2] was less than 31.6 nM and the IC50 [3] was less than 31.6 nM. For the same compound, the IC50 [4] was less than 31.6 nM, the IC50 [5] was less than 31.6 nM and the IC50 [6] was less than 31.6 nM. The viability, T/C [7] was 17.3%, the viability, T/C [8] was 19.9% and the viability, T/C [9] was 20.6%. It also gave a viability, T/C [10] of 24.5%, a viability, T/C [11] of 23.5% and a viability, T/C [12] of 23.9%. It also gave a viability, T/C [13] of 17.1%, a viability, T/C [14] of 17.9% and a viability, T/C [15] of 21.1%. For the same compound, the viability, T/C [16] was 21%, the viability, T/C [17] was 25.6% and the viability, T/C [18] was 23.6%. The viability, T/C [19] was 20.9%, the viability, T/C [20] was 18.6% and the viability, T/C [21] was 19.2%. It also gave a viability, T/C [22] of 22.4%, a viability, T/C [23] of 22.4% and a viability, T/C [24] of 24%. For the same compound, the viability, T/C [25] was 16.7%, the viability, T/C [26] was 17.1% and the viability, T/C [27] was 22.9%. The viability, T/C [28] was 20.3%, the viability, T/C [29] was 21.6% and the viability, T/C [30] was 22.2%. It also gave a viability, T/C [31] of 14.4%, a viability, T/C [32] of 15.5% and a viability, T/C [33] of 17.5%. For the same compound, the viability, T/C [34] was 19.6%, the viability, T/C [35] was 19.8% and the viability, T/C [36] was 21.8%. The viability, T/C [37] was 13%, the viability, T/C [38] was 14.8% and the viability, T/C [39] was 14.2%. It also gave a viability, T/C [40] of 17.2%, a viability, T/C [41] of 19.5% and a viability, T/C [42] of 19.1%.

CC(=O)OC12COC1CC(O)C1(C)C(=O)C(O)C3=C(C)C(OC(=O)C(O)C(NC(=O)OC(C)(C)C)c4ccccc4)CC(O)(C(OC(=O)c4ccccc4)C21)C3(C)C (stereo not given) was tested, and the viability, T/C (compound 0.0316 µM) was 51.5% [middle of 4 runs], the viability, T/C (compound 0.1 µM) was 44.6% [middle of 4 runs] and the viability, T/C (compound 0.316 µM) was 58.4% [middle of 4 runs]. The viability, T/C (compound 1 µM) was 62.5% [middle of 4 runs], the viability, T/C (compound 3.16 µM) was 70.3% [middle of 4 runs] and the viability, T/C (compound 10 µM) was 63.5% [middle of 4 runs]. The IC50 (curve of compound) was less than 31.6 nM.
